In patent publication US9671415B2, “Immunoassay for pyrrolidinophenones” (RANDOX LABORATORIES LIMITED, priority 2014, dated 2017):
In brackets after ≈: the same amount, converted by molar mass. Several values for one entry are separate records, joined by “and”; a condition that tells them apart may be missing. Identical values can stand only once. Counter-ions that a name gives are not always drawn.

Assays:
Antibody-1B = assay: Competitive ELISA for pyrrolidinophenones, Antibody-1B with Tracer-1 (Example 10); format: binding, sheep; conditions: Antibody-1B coated at 2.5 μg/ml, Tracer-1 at 1/128k; for IC50 / % Cross-Reactivity: Table 2; for % Cross-Reactivity: relative to α-PVP = 100
Experimental: The purified polyclonal antibody from Example 9 (Antibody-1B) was immobilised on a 96 well ELISA plate at 2.5 μg/ml in 10 mM TRIS buffer, pH 8.5 overnight at 4° C. The assay is based on competition for binding sites of a polyclonal antibody between HRP tracer (Tracer-1) and α-PVP or potential cross-reactants. The plate was washed (×3) with TBST (Tris-Buffered Saline/Tween solution) and the calibrator (α-PVP) or potential cross reactants added (50 μl per well), followed by HRP tracer (Tracer-1) (75 μl/well) to the appropriate wells. The plates were then incubated for 60 minutes at 25° C. They were then subjected to 2 quick wash cycles using TBST, followed by 4×2 minute wash cycles. 125 μl of signal (TMB) was then added to each well for 20 mins at room temperature in the dark. The reaction was stopped by the addition of 125 μl of 0.2 M sulphuric acid per well and the plates read immediately at 450 nm. Calibration curves were generated using α-PVP and these were used to determine the sensitivity and specificity of the immunoassay for potential cross-reactants. The data was inputted to a computer program called KC Junior (Biotek). It gives a 4 parameter fit curve and allows the calculation of concentrations between the standard runs. This program is used to calculate the IC50 values by dividing the 0 ng/ml optical density (OD) value by 2 and obtaining the concentration value from the curve for this OD. The results of this study are presented in Tables 1 and 2, cross-reactivity being calculated according to the following formula: % CR=[…]/IC50 CR×100 wherein % CR is the percentage cross-reactivity, IC50 α-PVP is the concentration of α-PVP which causes 50% displacement of signal and IC50 CR is the concentration of potential cross-reactant that causes 50% displacement of signal.
Antibody-1B (Example 9) used to generate the data in the tables below was raised from Immunogen-1B (Example 7) and the HRP tracer (Tracer-1) was prepared as in Example 8. All of the compounds in Table 2 are commercially available from suppliers such as Cayman Chemical (Ann Arbor, Mich., USA).

α-PVP antibody = assay: α-PVP/MDPV ELISA kit validation assay (Example 11); format: binding; conditions: for % Cross-Reactivity: α-PVP/MDPV ELISA kit specificity, relative to α-PVP = 100, Table 10; for % CR: calculated with reference to the standard of that run; for Reactant IC50: standard concentration which produced 50% B/B0 in that run
Experimental: A microtitre plate was precoated with α-PVP antibody. α-PVP (antigen), if present in the sample competes with the horseradish peroxidase labelled α-PVP (enzyme labelled antigen) for a limited number of antibody sites on the microtitre plate. After incubation at room temperature to allow a competition reaction to take place, the microtitre plate was washed to remove excess reagents. The enzyme substrate was added. After an incubation period to allow maximum colour development, the colour reaction was stopped by the addition of acid. This produces a colour change from blue to yellow, and the absorbances are read at 450 nm. A standard curve was then constructed to determine the α-PVP concentration in the sample.
2. Urine samples were diluted 1:50 with diluent (I.e. 10 μl sample+490 μl diluent).
• 1. Whole blood samples were diluted 1:50 with diluent (i.e. 10 μl sample+490 μL diluent). • 2. The sample was mixed gently by pipetting without the formation of foam. Procedure
The assay was performed in duplicate. The layout of Table 4 was used where each box represents 2 wells:
a) Table 5 details what was pipetted into the appropriate wells of the microtitre plate:
b) The microtitre plate was gently tapped from side to side for a few seconds. c) The microtitre plate was covered with a plate sealer before incubating for 30 minutes at room temperature (+15° C. to +25° C.) in the dark. d) The plate was inverted and the liquid tapped out liquid. e) The plate was washed 6 times with diluted wash buffer (ensuring all wells were filled), over a 10-15 minute period. After the final wash the liquid was discarded liquid and the plate was tapped onto lint free tissue paper until completely dry. f) Immediately after washing, one 125 μl shot of substrate was pipetted into each well using a multichannel pipette. The microtitre plate was gently tapped from side to side and incubated for 20±2 minutes at room temperature (+15 to +25° C.) in the dark. g) The colour reaction was stopped by the addition of 100 μl of stop solution per well. A colour change from blue to yellow resulted. h) The optical density was measured at 450 nm within 10 minutes of stopping the colour reaction. The use of a 630 nm filter was used as the reference wavelength. […] Assay Cut-Off
Equally, pyrrolidinopentiothiophenone and mdpbp were assessed in the same run; and mdppp and α-pyrrolidinopropiophenone were assessed in the same run. […] The Reactant IC50s (i.e. ^2 in the table above) are the standard concentrations which produced 50% B/B0 in that run. The % CR (last column in the table above) is calculated with reference to the standard used in that particular run.

Antibodies in EP2626358 = conditions: immunoassay of EP2626358; cited from earlier work
[1] = unit not given, Table 11, in ng/mL

In the case of `Cc1ccc(C(=O)C(C)N2CCCC2)cc1` (racemic) [4′-Methyl-α-pyrrolidinopropiophenone], the IC50 (Antibody-1B) is reported as over 10 ng/mL, the “% Cross-Reactivity” value (Antibody-1B) is reported as under 3.150% and the “% Cross-Reactivity” value (α-PVP antibody) is reported as 1.8%.
In the case of `CC(C(=O)c1ccc2c(c1)OCO2)N1CCCC1` (stereo not drawn) [3′,4′-Methylenedioxy-α-pyrrolidinopropiophenone], the “% CR” value (α-PVP antibody; Table 11) is reported as 0.8%, the “Reactant IC50” value (α-PVP antibody; [1]) is reported as 17.727 and the “% Cross-Reactivity” value (α-PVP antibody) is reported as 0.8%.
With `CCCCCCC(C(=O)c1ccc(F)cc1)N1CCCC1.Cl` (stereo not drawn) [4-Fluoro-PV9 HCl, 1-(4-fluorophenyl)-2-(pyrrolidin-1-yl)octan-1-one, monohydrochloride] the “% Cross-Reactivity” value (α-PVP antibody) was 3.2%.
With `CNC(C)C(=O)c1ccc(F)cc1` (stereo not drawn) [4-Fluoromethcathinone, 4-fluoro-N-methylcathinone] the “% Cross-Reactivity” value (α-PVP antibody) was under 1%.
In the case of `CCCCCC(C(=O)c1ccc(OC)cc1)N1CCCC1.Cl` (stereo not drawn) [4-Methoxy-PV8 HCl, 1-(4-methoxyphenyl)-2-(pyrrolidin-1-yl)heptan-1-one, hydrochloride], the “% Cross-Reactivity” value (α-PVP antibody) is reported as 11.7%.
With `CCCC(C(=O)c1ccc(OC)cc1)N1CCCC1` (stereo not drawn) [4-Methoxy-α-pyrrolidinopentiophenone, 4′-Methoxy-α-pyrrolidinopentiophenone] the IC50 (Antibody-1B) was 0.233 ng/mL (≈ 0.891 nM) and the “% Cross-Reactivity” value (Antibody-1B) was 135.193%.
For `CCCCC(C(=O)c1ccc(C)cc1)N1CCCC1` (stereo not drawn) [4′-Methyl-α-pyrrilidinohexylphenone], the “% Cross-Reactivity” value (α-PVP antibody) was 38.1%.
For `CCC(C(=O)c1ccc(C)cc1)N1CCCC1` (stereo not drawn) [4′-Methyl-α-pyrrolidinobutiophenone], the “% Cross-Reactivity” value (α-PVP antibody) was 23.2%.
For `CCC(NC)C(=O)c1ccc2c(c1)OCO2` (stereo not drawn) [Butylone, 1-(1,3-benzodioxol-5-yl)-2-(methylamino)butan-1-one], the “% Cross-Reactivity” value (α-PVP antibody) was under 1%.
In the case of `CCC(C(=O)c1ccc2c(c1)OCO2)N1CCCC1` (stereo not drawn) [MDPBP, 3′,4′-Methylenedioxy-α-pyrrolidinobutiophenone], the IC50 (Antibody-1B) is reported as 1.532 ng/mL (≈ 5.86 nM), the “% Cross-Reactivity” value (Antibody-1B) is reported as 20.561% and the “% CR” value (α-PVP antibody; Table 11) is reported as 17.2%. For the same molecule, the “Reactant IC50” value (α-PVP antibody; [1]) was 1.044 and the “% Cross-Reactivity” value (α-PVP antibody) was 17.2%.
In the case of `CCCC(C(=O)c1ccc2c(c1)OCO2)N1CCCC1` (stereo not drawn) [MDPV, 3′,4′-Methylenedioxy-α-pyrrolidinopentiophenone], the IC50 (Antibody-1B) is reported as 0.176 ng/mL (≈ 0.639 nM), the “% Cross-Reactivity” value (Antibody-1B) is reported as 178.977% and the “% CR” value (α-PVP antibody; Table 11) is reported as 93.3%. For the same molecule, the “Reactant IC50” value (α-PVP antibody; [1]) was 0.164 and the “% Cross-Reactivity” value (α-PVP antibody) was 93.3%.
For `CNC(C)C(=O)c1ccc(C)cc1` (stereo not drawn) [Mephedrone], the “% Cross-Reactivity” value (α-PVP antibody) was under 1%.
With `CNC(C)C(=O)c1ccc(OC)cc1` (stereo not drawn) [Methedrone] the “% Cross-Reactivity” value (α-PVP antibody) was under 1%.
With `CNC(C)C(=O)c1ccc2c(c1)OCO2` (stereo not drawn) [Methylone] the “% Cross-Reactivity” value (α-PVP antibody) was under 1%.
For `CCCC(C(=O)c1ccc2ccccc2c1)N1CCCC1` (stereo not drawn) [Naphyrone, 1-(naphthalen-2-yl)-2-(pyrrolidin-1-yl)pentan-1-one], the IC50 (Antibody-1B) was 0.221 ng/mL (≈ 0.785 nM), the “% Cross-Reactivity” value (Antibody-1B) was 142.534% and the “% CR” value (α-PVP antibody; Table 11) was 70.2%. The “Reactant IC50” value (α-PVP antibody; [1]) was 0.218 and the “% Cross-Reactivity” value (α-PVP antibody) was 70.2%.
In the case of `CCCC(NC)C(=O)c1ccc2c(c1)OCO2` (stereo not drawn) [Pentylone, 1-(1,3-benzodioxol-5-yl)-2-(methylamino)pentan-1-one], the “% Cross-Reactivity” value (α-PVP antibody) is reported as under 1%.
With `CCCC(C(=O)c1ccc(C)cc1)N1CCCC1` (stereo not drawn) [Pyrovalerone, 4-Methyl-α-pyrrolidinopentiophenone] the IC50 (Antibody-1B) was 0.168 ng/mL (≈ 0.685 nM), the “% Cross-Reactivity” value (Antibody-1B) was 187.500% and the “% CR” value (α-PVP antibody; Table 11) was 125.4%. For the same molecule, the “Reactant IC50” value (α-PVP antibody; [1]) was 0.122 and the “% Cross-Reactivity” value (α-PVP antibody) was 125.4%.
In the case of `CCCC(C(=O)c1ccccc1)N1CCCC1` (stereo not drawn) [α-PVP, α-Pyrrolidinovalerophenone], the IC50 (Antibody-1B) is reported as 0.315 ng/mL (≈ 1.36 nM), the “IC50 (standard concentration which produces 50% B/B0)” value (Antibody-1B; standard α-PVP, Table 1) is reported as 0.315 ng/mL (≈ 1.36 nM) and the “% Cross-Reactivity” value (Antibody-1B) is reported as 100%. For the same molecule, the “STD IC50” value (α-PVP antibody; IC50 of the standard (alpha-pvp) in the same run as the reactant of the line, unit not given, Table 11, in ng/mL) was 0.18 and 0.153 and 0.149, the “% CR” value (α-PVP antibody; Table 11) was 100% and the “Reactant IC50” value (α-PVP antibody; [1]) was 0.153. For the same molecule, the “% Cross-Reactivity” value (α-PVP antibody) was 100% and the cross-reactivity (Antibodies in EP2626358) was “very low”.
In the case of `CCCC(C(=O)c1cccs1)N1CCCC1` (stereo not drawn) [α-Pyrrolidinopentiothiophenone HCl, α-Pyrrolidinopentiothiophenone], the “% CR” value (α-PVP antibody; Table 11) is reported as 73.2%, the “Reactant IC50” value (α-PVP antibody; [1]) is reported as 0.246 and the “% Cross-Reactivity” value (α-PVP antibody) is reported as 73.2%.
In the case of `CC(C(=O)c1ccccc1)N1CCCC1` (stereo not drawn) [α-Pyrrolidinopropiophenone], the IC50 (Antibody-1B) is reported as over 10 ng/mL, the “% Cross-Reactivity” value (Antibody-1B) is reported as under 3.150% and the “% CR” value (α-PVP antibody; Table 11) is reported as 0.8%. The “Reactant IC50” value (α-PVP antibody; [1]) was 18.744 and the “% Cross-Reactivity” value (α-PVP antibody) was 0.8%.
